The text below walks through data of PubChem BioAssay AID1259321 (Sanford-Burnham Center for Chemical Genomics, 2017).

The source made the active and inactive calls.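 Rule for the calls: active = half-maximal concentration for changing protein binding to DNA, from the fitted dose curve, below 10 micromolar; inactive = the rest.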 Bounds are passed on as bounds.

Nuclear receptor subfamily 1 group D member 1 (Homo sapiens), sequence (P20393 whole entry, looked up): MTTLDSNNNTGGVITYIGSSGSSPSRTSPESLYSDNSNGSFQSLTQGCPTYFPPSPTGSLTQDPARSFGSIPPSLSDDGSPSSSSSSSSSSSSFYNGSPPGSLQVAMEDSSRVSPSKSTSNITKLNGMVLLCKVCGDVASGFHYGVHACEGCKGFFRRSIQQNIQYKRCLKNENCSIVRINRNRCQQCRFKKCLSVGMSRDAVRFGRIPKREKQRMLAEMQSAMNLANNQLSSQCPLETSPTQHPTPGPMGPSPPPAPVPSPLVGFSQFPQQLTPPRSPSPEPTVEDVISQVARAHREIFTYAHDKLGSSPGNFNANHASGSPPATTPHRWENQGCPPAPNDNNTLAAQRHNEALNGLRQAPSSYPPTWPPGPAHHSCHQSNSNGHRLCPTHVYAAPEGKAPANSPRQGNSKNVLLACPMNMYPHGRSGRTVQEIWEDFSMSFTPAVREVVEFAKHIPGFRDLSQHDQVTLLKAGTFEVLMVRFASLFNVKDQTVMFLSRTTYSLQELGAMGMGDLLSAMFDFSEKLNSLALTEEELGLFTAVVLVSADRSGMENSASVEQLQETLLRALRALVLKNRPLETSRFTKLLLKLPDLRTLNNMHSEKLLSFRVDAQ

The experiment addresses Nuclear receptor subfamily 1 group D member 1 (Homo sapiens) (UniProt P20393). Put plainly: Rev-erbα–DNA interaction modulators – biochemical, FITC-DNA, fluorescence polarization, dose response (AID 1259321). Conditions: Rev-erb alpha-FITC-DNA binding.
`O=C1c2cccc3c(N4CCCCC4)ccc(c23)C(=O)N1c1ccccc1O`: the half-maximal inhibitory concentration (IC50) (in general, the concentration that gives 50% inhibition) was 5.32 µM. With `COc1ccc(-n2nc(C(=O)NCC(=O)Nc3cccc(Cl)c3)c3ccccc3c2=O)cc1` the entry was “inactive”. For `Cc1nn(C)c(C)c1NC(=O)CSc1nc(-c2ccccc2Cl)nc2c1cnn2-c1ccccc1`, the 50% inhibitory concentration (IC50) is 0.879 µM.

`CCN(CC)c1ccc(/C=C(/C#N)c2nc3ccccc3[nH]2)c(OC(C)C)c1`: the concentration for half-maximal inhibition (IC50) is 3.45 µM. As to `Cc1ccc2c(c1C)NC(=O)CC(c1ccccc1O)=N2`, the IC50 was > 40 µM (inactive). As for `CSc1ccccc1-c1nnc(-c2ccc(Cl)c(Cl)c2)o1`, the IC50 was 8.81 µM. Turning to `COc1cc(OC)cc(C(=O)OCc2cc3ccccc3[nH]c2=O)c1`, the IC50 entry is “inactive”.

As for `Cc1ccc2[nH]c(C)c(/C=C/c3cc[n+](C)cc3)c2c1`, the 50% inhibitory concentration (IC50) was 8.6 µM.

Consider `CCN(CC)c1ccc(/C=C(\C#N)C(=O)c2ccc(Br)cc2)cc1`, for which the IC50 result was “inactive”. On to `Cc1nc(SCc2nc3c(F)cccc3[nH]2)c2oc3ccccc3c2n1`, for which the IC50 was > 40 µM (inactive). Take `COC(=O)c1ccc(N/C=C\C(=O)c2ccc3c(c2)OCO3)cc1`: the half-inhibitory concentration (IC50) is 7.08 µM. As for `COc1cc(OC)cc(-n2c3nc4ccccc4nc3c3c(=O)n(CC4CCCO4)cnc32)c1` (configuration not stated), the IC50 is 4.12 µM. Then `CCOC(=O)c1sc(NC(=S)NC(=O)C2CCCC2)cc1C`, with 1.8 µM.

On to `COc1ccccc1-c1ccc2c(c1)C(C)(Cc1cccc(C#N)c1)C(=O)N2` (configuration not stated), for which the IC50 was > 40 µM (inactive).

With `CCN(CC)S(=O)(=O)c1ccc(C(=O)OCCN2C(=O)c3cccc4c(N5CCOCC5)ccc(c34)C2=O)cc1`, the IC50 was > 40 µM (inactive). Consider `COC(=O)c1ccc(Cn2ccc3ccc(-c4ccc5ccn(C(=O)C6CCCCC6)c5c4)cc32)cc1`, for which the IC50 is 6.33 µM. Regarding `O=C(N=c1ccn(-c2nc3ccccc3nc2NS(=O)(=O)c2ccccc2)cc1)c1cccs1`, the IC50 result was “inactive”. With `Cc1cc(NC(=O)CSc2nc3c(C)cccc3cc2C#N)no1` the figure was > 40 µM (inactive); with `COC1C(CO)OC(n2c3c(Cl)cccc3c3c4c(c5c6cccc(Cl)c6[nH]c5c32)C(=O)NC4=O)C(O)C1O` (configuration not stated), “inactive”.

For the molecule `Cc1[nH]c2ccccc2c1/C=C/c1cc[n+](C)cc1`, the IC50 is 4.41 µM.

As to `COc1ccc(CC(=O)Nc2ccc(-c3noc(-c4ccccc4OC)n3)cc2)cc1`, the half-inhibitory concentration (IC50) is 4.17 µM. For `COc1ccc(Cn2ccc3ccc(-c4ccc5ccn(C(=O)c6ccc(C)cc6)c5c4)cc32)cc1`, the IC50 was > 40 µM (inactive). Take `O=C(O)CSc1c2ccccc2cc2ccccc12`: the IC50 was > 40 µM (inactive). As to `C/C=C(/C(=C/C)c1ccc(O)cc1)c1ccc(O)cc1`, the IC50 is > 40 µM (inactive). Turning to `C=CCn1cc(/C=C/c2cc[n+](C)cc2)c2ccccc21`, the IC50 was > 40 µM (inactive). Take `CCc1nc(SCC(=O)NCCc2ccccc2)c2oc3ccccc3c2n1`: the IC50 is 1.57 µM. With `CCOc1ccc(CCNC(=O)c2cc(-c3ccccc3)c(N3CCOCC3)s2)cc1` the figure was 4.5 µM; with `CCN(c1cccc(C)c1)S(=O)(=O)c1cc2c3c(c1)CCC(=O)N3CCC2`, “inactive”. As for `O=C(Nc1cccc(C(F)(F)F)c1)c1cc(Br)cc2c1OCC2`, the IC50 is > 40 µM (inactive). Then `O=C(NCc1cccc(F)c1)c1cccc2c1C(=O)c1ccc(N3CCOCC3)cc1S2(=O)=O`, with 3.69 µM. Take `Cc1cccc2cc(C#N)c(SCC(=O)Nc3ccccc3N3CCOCC3)nc12`: the IC50 result is “inactive”. As to `COc1ccc(-c2nc(N)ncc2Oc2ccccc2Br)c(O)c1`, the IC50 result was “inactive”.

Regarding `CCCCCCCn1c(=O)c(C(=O)Nc2cnccn2)c(O)c2ccccc21`, the IC50 result is “inactive”. With `Brc1nc(-c2ccccc2)nc(-c2ccccc2)c1Br` the figure was > 40 µM (inactive); with `COc1ccc(Cc2nc3ccccc3n2CC(=O)N/N=C/c2ccc(C)cc2O)cc1OC`, 5.85 µM. With `Fc1ccc(-n2c(-c3cccs3)nc3nc4ccccc4nc32)cc1`, the IC50 was 4.41 µM. As for `COc1ccc(Oc2c(Cl)cnn(CC(=O)C(c3ccccc3)c3ccccc3)c2=O)cc1`, the IC50 was 0.779 µM.

Take `COc1cccc(NC(=O)CSc2nc3ncc(Br)cc3[nH]2)c1`: the IC50 is 1.3 µM. Take `Brc1ccc2ncc(Br)cc2c1`: the IC50 was 4.22 µM. With `CCN1C(=O)CSC1=NC12CC3CC(CC(C3)C1)C2` the figure was > 40 µM (inactive). Then `COc1ccc(S(=O)(=O)N2CCc3ccccc32)cc1C(=O)Nc1ccc(NC(C)=O)cc1`, with 5.19 µM.

As for `CCc1cccc(NC(=O)c2ccc(Cn3c(=O)[nH]c4ccsc4c3=O)cc2)c1`, the IC50 result is “inactive”. Then `COc1cc(-c2nn3c(COc4ccccc4)nnc3s2)cc(OC)c1OC`, with 2.99 µM; and `CCc1cc2cc3c(cc2nc1SCC(=O)Nc1c[nH]c(=O)[nH]c1=O)OCO3`, with 2.22 µM; and `CCc1cc2c(C)ccc(C)c2nc1SCC(=O)Nc1c[nH]c(=O)[nH]c1=O`, with “inactive”. Then `CCOC(=O)C1CCCN(c2ccc([N+](=O)[O-])c3nonc23)C1` (configuration not stated), with > 40 µM (inactive); and `CCCCCc1nc2c(c(=O)c3ccccc3n2C)c(=O)n1Cc1ccc(OC)cc1`, with 2.96 µM. As for `CCOC(=O)c1nnn2c1nc(Nc1cccc(C(F)(F)F)c1)c1ccccc12`, the IC50 was 1.86 µM. Take `O=C(CSc1ncnc2c1sc1ccccc12)Nc1ccc(Br)cc1`: the IC50 was 2.97 µM.

`CCOC(=O)c1sc(NC(=S)NC(=O)c2cccc(OC)c2)nc1C`: the IC50 was 8.54 µM.

As to `CCCCN1C(=O)/C(=C/C=C2\SCCN2C)SC1=S`, the half-inhibitory concentration (IC50) is 3.18 µM. As to `Cc1ccc(NC(=O)CSc2nc3ccccc3nc2N2CCOCC2)c(C)c1`, the IC50 entry was “inactive”. Take `Cc1nc2cc(NC(=O)CSc3nc4c(C)cccc4cc3C#N)ccc2s1`: the 50% inhibitory concentration (IC50) was 5.93 µM.

Turning to `COc1cc(C=Cc2nnc3c4ccccc4cnn23)cc(OC)c1OC`, the IC50 entry was “inactive”.

With `COc1ccc(/C=C/C(=O)NC(=S)N2CCN(c3ccccc3OC)CC2)cc1`, the IC50 was 1.65 µM. In the case of `COc1ccc(Cl)cc1-c1cc(C(=O)Nc2ccc(F)cc2)[nH]n1`, the IC50 is 3.13 µM. Then `CCOC(=O)c1c(C2CC2)csc1NC(=O)COC(=O)c1cnc(Cl)c(Cl)c1`, with “inactive”; and `Cc1cc(C)c(NC(=O)CSc2nc(COc3ccccc3)nc3ccccc23)c(C)c1`, with 3.42 µM. In the case of `Cc1nc2ccc3nc(NC(=O)c4ccc5c(c4)OCCO5)sc3c2s1`, the half-inhibitory concentration (IC50) is 9.57 µM. With `COc1cc2c3nnc(-c4ccc(F)cc4)c-3cn(Cc3ccccc3)c2cc1OC`, the IC50 entry was “inactive”. `N#C/C(=C(/O)C(Cl)c1ccccc1)c1nc2ccccc2s1` (configuration not stated): the 50% inhibitory concentration (IC50) was 5.7 µM. Consider `COc1nc(-c2ccccc2)ccc1-c1noc(-c2cccs2)n1`, for which the IC50 was > 40 µM (inactive). Regarding `COc1ccc(NC(=O)c2sc3nc(N4CCCC4)c4c(c3c2N)CC(C)(C)OC4)cc1`, the IC50 was > 40 µM (inactive). With `COc1ccccc1-c1ccc2c(c1)C(C)(Cc1ccccc1C#N)C(=O)N2` (configuration not stated) the figure was 7.13 µM; with `CCC(=O)c1cn(CC(=O)Nc2cccc(C)c2)c2ccccc12`, > 40 µM (inactive). As to `Cc1cccc(N2C(=O)c3cccc4c(N)ccc(c34)C2=O)c1`, the half-inhibitory concentration (IC50) is 6.19 µM. On to `CCCSc1nc(SCC(=O)NCc2ccccc2)c2c3c(sc2n1)COC(C)(CC)C3` (configuration not stated), for which the IC50 is > 40 µM (inactive). With `CCc1ccc(NC(=O)CSc2nc3ncc(Br)cc3[nH]2)cc1` the figure was 1.53 µM. Then `COc1ccc(C(=O)/C(C#N)=N/Nc2ccc([N+](=O)[O-])cc2)cc1`, with > 40 µM (inactive); and `COc1ccc(-c2nc3c(c(=O)c4ccccc4n3C)c(=O)n2Cc2ccccc2)cc1`, with 9.23 µM.

On to `O=C(COc1ccccc1)Nc1nc2cc3c(cc2s1)OCCO3`, for which the half-inhibitory concentration (IC50) is 4.3 µM.

`CNc1ccc2c3c(cccc13)C(=O)N(C)C2=O`: the IC50 was 4.6 µM. On to `Cc1cccc(N2CCN(c3ccc4cc(S(=O)(=O)N5CCCCC5)ccc4n3)CC2)c1C`, for which the IC50 is > 40 µM (inactive).

For the molecule `Cc1nn(C)c(C)c1N1C(=O)c2cccc3c(N)ccc(c23)C1=O`, the IC50 was 1.13 µM.

As for `COC(=O)c1cccc(Cn2ccc3ccc(-c4ccc5ccn(C(=O)C6CCCCC6)c5c4)cc32)c1`, the 50% inhibitory concentration (IC50) is 7.14 µM. With `N#Cc1cccc(Cn2ccc3ccc(-c4ccc5ccn(Cc6cccc(C#N)c6)c5c4)cc32)c1`, the IC50 is 0.544 µM. For `CC(=O)Oc1c(/C=C(\C#N)C(N)=O)[nH]c2ccccc12`, the concentration for half-maximal inhibition (IC50) is 2.18 µM. Then `O=C1NC(=O)c2c(Br)c(Br)c(Br)c(Br)c21`, with 1.48 µM; and `COc1ccc(C(=O)Nc2nnc(Cc3ccccc3)s2)c(OC)c1`, with “inactive”; and `O=C1c2cccc3c(O)ccc(c23)C(=O)N1c1ccc(Cl)cc1`, with 2.42 µM. Turning to `Cc1ccc(S(=O)(=O)c2nc(Nc3ccccc3C#N)sc2Cl)cc1`, the IC50 result was “inactive”.

As for `Cc1nn(C)c(C)c1NC(=O)CSc1nc(-c2ccccc2F)nc2c1cnn2-c1ccccc1`, the IC50 is 3.21 µM.

For `COc1ccc(C(=O)Nc2scc(-c3ccc(Cl)cc3Cl)c2C(N)=O)cc1`, the IC50 result is “inactive”. Then `Cc1ccc2nc(N3CCN(c4cccc(C)c4C)CC3)c3nnnn3c2c1`, with 7.32 µM; and `COc1ccc2c(COC(=O)c3n[nH]c4ccccc34)cc(=O)oc2c1`, with > 40 µM (inactive); and `N#Cc1ccccc1N1CCN(C(=O)C2CCN(c3ncnc4c3sc3cccc(F)c34)CC2)CC1`, with 4.47 µM. On to `COc1ccc(C(=O)COC(=O)c2cc(=O)[nH]c3ccccc23)c(OC)c1`, for which the IC50 result is “inactive”. Consider `CCN1/C(=C/C=C/c2oc3ccc(-c4ccccc4)cc3[n+]2CC)Oc2ccc(-c3ccccc3)cc21`, for which the IC50 was > 40 µM (inactive).

On to `N#Cc1c(N)nc2c3c(sc(=N)c2c1N)NC(=O)CC3c1c(F)cccc1Cl` (configuration not stated), for which the half-inhibitory concentration (IC50) was 0.78 µM. Regarding `O=C(Nc1nc(=O)c2ccccc2s1)c1ccc(Cl)cc1`, the IC50 was > 40 µM (inactive). With `Cc1nc(SCC(=O)NC2CCCC2)c2oc3ccccc3c2n1` the figure was 7.45 µM.

On to `CC(=O)c1ccc(Nc2ncnc3ccc(Br)cc23)cc1`, for which the IC50 entry is “inactive”.
